{
  "source": "patent US20050124493A1",
  "about": "“Herbicidal composition” (priority 2002, published 2005)",
  "test_system": "wheat and barley",
  "assay": "Post-emergence greenhouse test of herbicide mixture with safener (Example B1)",
  "format": "in vivo",
  "conditions": "greenhouse pots, mixture of MCPA, bromoxynil and herbicide H1 or H2, alone vs. with safener (admixture or seed dressing), evaluated after 9, 10, 20 and 24 days, 100% action=plant completely dead, 0%=no phytotoxic action",
  "text": "Examples B1: Post-emergence applications of mixtures of MCPA, bromoxynil and the herbicide of formula I wherein R1 and R3 are —C2H5; R4 and R5 together form a group —CR14(R15)—CR16(R17)—O—CR18(R19)—CR20(R21)— wherein R14, R15 R16, R17, R18, R19, R20 and R21 are hydrogen; and G is either hydrogen (=herbicide H1) or (CH3)3CC(O)— (=herbicide H2), with the safener of formula II wherein Rs1 is chlorine and Rs2 is 1-methylhexyl, in wheat and barley, and together with 3 different weeds.\nThe test plants are grown to a post-application stage in pots under greenhouse conditions. A standard soil is used as cultivation substrate. At a post-emergence stage, the herbicides, both on their own and in admixture with the safener, are applied to the test plants or to cultivated plants seed-dressed with safener. The application is carried out using an emulsion (prepared from a 25% emulsifiable concentrate (Example F1, b)) of the test substances using 500 litres of water per ha. The rates of application depend on the optimum concentrations ascertained under field conditions and greenhouse conditions. The tests are evaluated after 9, 10, 20 and 24 days (100% action=plant is completely dead, 0% action=no phytotoxic action).",
  "data": [
    {"smiles": "CCCCCC(C)OC(=O)COc1ccc(Cl)c2cccnc12", "note": "(stereo not shown) [safener]", "values": [
      {"measurement": "damage caused to the cultivated plants by the herbicide mixture (phytotoxic action)", "value": "significantly reduce the damage"}
    ]}
  ]
}
